Results from article PMC6271893, “In Vitro Antioxidant and Cytotoxic Activity of Some Synthetic Riparin-Derived Compounds” (Molecules, 2014).
In brackets after ≈: the same amount, converted by molar mass. Read-outs that look alike come from different tables or passages of the source. Marks after values point to notes of the source that are not given here.

Columns and labels:
[1] = tested on: murine peritoneal macrophages RAW 264.7; test: Cytotoxicity assay on RAW 264.7 (LDH release); assay type: cell-based
Experimental: Murine peritoneal macrophages of the cell line RAW 264.7 were obtained from the American Type Culture Collection (ATCC, Rockville, MD, USA), and cultured at 37 °C with CO2 at 5% in DMEM-F12 supplemented with 10% fetal bovine serum (FBS; Hyclone^TM, Logan, UT, USA) and gentamicin (50 μg/mL). RAW 264.7 cells (5 × 10^5 cells/mL) were cultured and incubated for 24 h with the riparins A, B, C, D, E and F at the final concentration of 25 µg/mL […]. The cytotoxicity assay was performed by LDH assay. The release of LDH (cytoplasmic lactate dehydrogenase enzyme) was determined using 50 μL of culture supernatant with 100 μL of LDH substrate plus and 5 μL ferric alum (5 mg/mL), at 37 °C for 3 min. Then, 100 μL of the NAD solution and phenazine methosulphate were added to the mixture, maintaining the temperature at 37 °C for 5 min (Labrax Commercial Kit, Clontech, Palo Alto, CA, USA). LDH is an oxidoreductase which catalyzes the interconversion of lactate and pyruvate and, for being a stable cytosolic enzyme, after damage to cell membrane it is released in the cellular environment and because of this LDH is an indirect indicator of cytotoxicity. LDH concentration was determined by colorimetry at 492 nm. The specific release of LDH was calculated as percentage of the controls (not treated cells as negative control and cells treated with 1%Triton X-100 as positive control).
(§1) The obtained data were evaluated by one-way analysis of variance (ANOVA) followed by a Student Newman Keuls post hoc test. The data concerning release percentage of cytoplasmatic enzyme lactate dehydrogenase (LDH) were reported by mean ± standard deviation and evaluated by one-way analysis of variance (ANOVA) followed by a Tukey post hoc test. In all cases differences were considered significant if p < 0.05, the means and respective standard errors were analyzed in the Graph Pad Prism version 5.0 for Windows software (GraphPad Software Incorporated, San Diego, CA, USA).

[2] = tested on: HL-60 (pro-myelocytic leukemia); test: Cytotoxicity against tumor cell lines (MTT); assay type: cell-based; details: Homo sapiens, 72 h, 95% confidence interval in brackets, read-out: IC50 values and confidence intervals, HL-60
Experimental: (§2) Cells were maintained at 37 °C with 5% CO2 in RPMI 1640 (Himedia^TM, Mumbai, India) or DMEM medium (Gibco^TM, Grand Island, NY, USA) supplemented with 2 mM glutamine, 100 U/mL penicillin, 100 μg/mL streptomycin. The antiproliferative activities of riparins were evaluated in the following human cancer cells lineage: HL-60 (pro-myelocytic leukemia), NCIH-292 (lung carcinoma), and HEP-2 (laryngeal carcinoma) obtained from the Rio de Janeiro Cell Bank (RJ-Brazil). For all experiments, 100 µL of tumor cells were plated in 96-well plates (6 × 10^4 cells/cm^2 for adherent cells or 9 × 10^4 cells/cm^2 for leukemia). Tested compounds (0.1–25 μg/mL) dissolved in 1% DMSO (100 µL) were added to each well and incubated for 72 h. Control groups received the same amount of DMSO. After 69 h of treatment, 25 μL of MTT (5 mg/mL) were added. Three hours later, the MTT formazan product was dissolved in 100 μL of DMSO, and absorbance was measured at 595 nm using a multiplate reader (Thermo Plate®, TP Reader, São Paulo, SP, Brasil).
as §1

[3] = tested on: NCIH-292 (lung carcinoma); test: Cytotoxicity against tumor cell lines (MTT); assay type: cell-based; details: Homo sapiens, NCI-H292, 72 h, 95% confidence interval in brackets, read-out: IC50 values and confidence intervals, NCIH-292
Experimental: as §2, §1

[4] = tested on: HEP-2 (laryngeal carcinoma); test: Cytotoxicity against tumor cell lines (MTT); assay type: cell-based; details: Homo sapiens, 72 h, 95% confidence interval in brackets, read-out: IC50 values and confidence intervals, HEP-2
Experimental: as §2, §1

[5] = Scavenging activity of nitric oxide (nitrite production induced by SNP, Griess reaction); details: for IC50 Nitrite: nitrite formation
Experimental: (§3) For the in vitro antioxidant tests the samples were emulsified in 0.05% Tween 80 dissolved in saline 0.9% (used as the vehicle) and tested at concentrations of 1, 5, 10, 25 and 100 µg/mL. The samples for the cytotoxicity tests were diluted in pure and sterile DMSO and tested at concentrations of 25 µg/mL.
Nitric oxide was generated from spontaneous decomposition of sodium nitroprusside in 20 mM phosphate buffer (pH 7.4). Once generated, NO interacts with oxygen to produce nitrite ions, which are measured by the Griess reaction. The reaction mixture (1 mL) containing 10 mM sodium nitroprusside (SNP) in phosphate buffer and the riparins at various concentrations of 1, 5, 10, 25 and 100 µg/mL were incubated at 37 °C for 1 h. A 0.5 mL aliquot was taken and homogenized with 0.5 mL Griess reagent. The absorbance of chromophore was measured at 540 nm. Percent inhibition of generated nitric oxide was measured by comparing the absorbance values of negative controls (only 10 mM sodium nitroprusside and vehicle) to assay preparations. Results were expressed as percentage of nitrite formed by SNP alone.

[6] = Hydroxyl radical scavenging activity (2-deoxyribose degradation, Fenton reaction); details: for IC50 OH radical: hydroxyl radical content
Experimental: as §3
The formation of OH radicals from Fenton reagents was quantified using the condensation product of the 2-deoxyribose oxidative degradation product, malonaldehyde, with 2-thiobarbituric acid (TBA). Briefly, typical reactions were started by the addition of Fe^2+ (FeSO4 6 mM final concentration) to solutions containing 5 mM 2-deoxyribose, 100 mM H2O2 and 20 mM phosphate buffer (pH 7.2). In order to determine the antioxidant activity of the riparins against the hydroxyl radical, individual tests were performed on each one of the six substances, in which different concentrations of the riparins were added to the system before Fe^2+ addition (Rip-A; Rip-B; Rip-C; Rip-D; Rip-E and Rip-F). Reactions were carried out for 15 min at room temperature and were quenched by the addition of phosphoric acid 4% (v/v), followed by TBA 1% (thiobarbituric acid, v/v in 50 μL NaOH). The solutions were boiled for 15 min to 95 °C and then cooled at room temperature. The absorbance was measured at 532 nm and the results were expressed as MDA equivalents formed by Fe^2+ and H2O2 [25].

[7] = Antioxidant potential against the formation of TBARS (AAPH-induced lipid peroxidation of egg yolk homogenate); details: for IC50 TBARS: TBARS production
Experimental: as §3
The TBARS assay was employed to quantify lipid peroxidation and an adapted TBARS method was used to measure the antioxidant capacity of the riparins (Rip-A, -B, -C, -D, -E and -F) using egg yolk homogenate as lipid rich substrate. Egg yolk was homogenized (1% w/v) in 20 mM phosphate buffer (pH 7.4), 1 mL of homogenate was sonicated and then homogenized with 0.1 mL of the samples at concentrations of 1, 5, 10, 25 and 100 µg/mL. Lipid peroxidation was induced by the addition of 0.1 mL of 2,2'-azobis(2-methylpropionamidine) dihydrochloride solution (AAPH; 0.12 M). Control was evaluated with only the vehicle. Reactions were carried out for 15 minutes at 37 °C. After cooling, samples (0.5 mL) were centrifuged with 0.5 mL of trichloroacetic acid (15%) at 1,200 ×g for 10 min. An aliquot of 0.5 mL from supernatant was mixed with 0.5 mL TBA (0.67%) and heated at 95 °C for 30 min. After cooling, sample absorbance was measured using a spectrophotometer at 532 nm. The results were expressed as percentage of TBARS formed by AAPH alone (induced control).

[8] = tested on: tumor cells lines (leukemia and lung and laryngeal carcinoma); test: Cytotoxicity on tumor cell lines, summary statements over the lines (MTT); assay type: cell-based; details: Homo sapiens; for IC50: leukemia and lung and laryngeal carcinoma, read-out: IC50 values on neoplastic cells (range over cell lines); for inhibition at 25 µg/mL: tumor cells lines, cytotoxicity samples tested at 25 µg/mL, read-out: cell growth inhibition rates
Experimental: as §3, §2

[9] = 140 μg/mL (standard antioxidant)

Compound	LDH % Release ([1]; 25 µg/mL, RAW 264.7)	IC50 [2]	IC50 [3]	Nitrite Production (% induced by SNP) ([5]; 1 μg/mL)	Nitrite Production (% induced by SNP) ([5]; 5 μg/mL)	Nitrite Production (% induced by SNP) ([5]; 10 μg/mL)	Nitrite Production (% induced by SNP) ([5]; 25 μg/mL)	Nitrite Production (% induced by SNP) ([5]; 100 μg/mL)	IC50 Nitrite [5]	2-Deoxyribose degradation (%) ([6]; 1 μg/mL)	2-Deoxyribose degradation (%) ([6]; 5 μg/mL)	2-Deoxyribose degradation (%) ([6]; 10 μg/mL)	2-Deoxyribose degradation (%) ([6]; 25 μg/mL)	2-Deoxyribose degradation (%) ([6]; 100 μg/mL)	IC50 OH radical [6]	TBARS levels (% AAPH) ([7]; 1 μg/mL)	TBARS levels (% AAPH) ([7]; 5 μg/mL)	TBARS levels (% AAPH) ([7]; 10 μg/mL)	TBARS levels (% AAPH) ([7]; 25 μg/mL)	TBARS levels (% AAPH) ([7]; 100 μg/mL)	also measured
O=C(NCCc1ccccc1)c1ccccc1 [Rip-A, N-Phenethylbenzamide]	28.13%	> 25 µg/mL	> 25 µg/mL	75.1 ± 1.31 ^a %	29.1 ± 0.61 ^a %	29.2 ± 2.05 ^a %	24.3 ± 0.62 ^a %	20.4 ± 1.20 ^a %	0.8404 µg/mL (≈ 3.73 µM)	97.1 ± 0.78 ^a %	76.9 ± 1.10 ^a %	54.5 ± 0.85 ^a %	49.6 ± 0.89 ^a %	44.8 ± 0.30 ^a %	1.501 µg/mL (≈ 6.66 µM)	40.9 ± 1.77 ^a %	38.1 ± 0.49 ^a %	36.7 ± 0.66 ^a %	35.1 ± 0.88 ^a %	25.8 ± 0.48 ^a %	IC50 [4]: > 25 µg/mL; IC50 TBARS [7]: 1.147 µg/mL (≈ 5.09 µM)
COc1ccc(CCNC(=O)c2ccccc2)cc1OC [Rip-B, N-[2-(3,4-Dimethoxyphenyl)ethyl]benzamide]	17.31%	> 25 µg/mL	> 25 µg/mL	75.8 ± 1.02 ^a %	34.1 ± 1.85 ^a %	29.1 ± 2.00 ^a %	23.1 ± 0.97 ^a %	20.6 ± 0.98 ^a %	0.7948 µg/mL (≈ 2.79 µM)	98.4 ± 0.39 ^a %	79.8 ± 1.34 ^a %	58.5 ± 0.85 ^a %	47.7 ± 0.44 ^a %	47.2 ± 0.43 ^a %	1.639 µg/mL (≈ 5.74 µM)	44.5 ± 1.31 ^a %	40.4 ± 0.85 ^a %	38.3 ± 1.05 ^a %	36.5 ± 1.21 ^a %	29.7 ± 1.31 ^a %	IC50 [4]: > 25 µg/mL; melting point: 90 °C; IC50 TBARS [7]: 1.032 µg/mL (≈ 3.62 µM)
O=C(NCCc1ccccc1)c1ccccc1O [Rip-C, 2-Hydroxy-N-phenethylbenzamide]	87.35%	3.3 µg/mL (≈ 13.7 µM)	> 25 µg/mL	69.3 ± 1.07 ^a %	34.9 ± 0.23 ^a %	22.9 ± 1.31 ^a %	19.8 ± 0.83 ^a %	16.5 ± 1.44 ^a %	0.7240 µg/mL (≈ 3 µM)	95.5 ± 1.30 ^a %	80.9 ± 1.29 ^a %	58.7 ± 1.37 ^a %	52.1 ± 0.13 ^a %	46.7 ± 0.35 ^a %	0.9516 µg/mL (≈ 3.94 µM)	39.3 ± 0.60 ^a %	38.8 ± 1.07 ^a %	34.3 ± 0.92 ^a %	29.5 ± 1.91 ^a %	25.7 ± 2.62 ^a %	IC50 [8]: 1.9 to 11.4 µg/mL (≈ 7.87 to 47.2 µM); inhibition at 25 µg/mL [8]: > 70%; LDH % Release ([1]; 25 µg/mL, RAW 264.7, listed as riparin C): greater than 80%; IC50 [4]: 7.3 µg/mL (≈ 30.3 µM); melting point: 95 °C; IC50 TBARS [7]: 0.8971 µg/mL (≈ 3.72 µM)
O=C(NCCc1ccccc1)c1c(O)cccc1O [Rip-E, 2,6-Dihydroxy-N-phenethylbenzamide]	96.91%	1.9 µg/mL (≈ 7.38 µM)	> 25 µg/mL	65.9 ± 1.30 ^a %	37.7 ± 0.95 ^a %	25.1 ± 1.37 ^a %	20.1 ± 0.71 ^a %	15.4 ± 1.11 ^a %	0.5224 µg/mL (≈ 2.03 µM)	79.9 ± 0.64 ^a %	62.2 ± 2.14 ^a %	53.4 ± 1.79 ^a %	51.4 ± 1.47 ^a %	49.4 ± 0.85 ^a %	1.054 µg/mL (≈ 4.1 µM)	41.4 ± 0.69 ^a %	38.6 ± 0.63 ^a %	35.5 ± 0.37 ^a %	31.3 ± 0.76 ^a %	28.2 ± 0.39 ^a %	IC50 [8]: 1.9 to 11.4 µg/mL (≈ 7.38 to 44.3 µM); inhibition at 25 µg/mL [8]: > 70%; LDH % Release ([1]; 25 µg/mL, RAW 264.7, listed as riparin E): greater than 80%; melting point: 155 °C; IC50 TBARS [7]: 0.7821 µg/mL (≈ 3.04 µM)
Cc1c(C)c2c(c(C)c1O)CCC(C)(C(=O)O)O2 (stereo not shown) [Trolox, reference compound]	–	–	–	–	–	–	–	–	–	–	–	–	–	–	–	–	–	–	–	–	Nitrite Production (% induced by SNP) [5, 9]: 40.2 ± 2.80 ^a %; 2-Deoxyribose degradation (%) [6, 9]: 21.4 ± 0.95 ^a %; TBARS levels (% AAPH) [7, 9]: 55.3 ± 6.48 ^a %
Triton X-100 [Triton X-100 1%, reference compound]	–	–	–	–	–	–	–	–	–	–	–	–	–	–	–	–	–	–	–	–	LDH % Release [1]: 99.96%
